Columns and labels:
K562 = assay: Antiproliferative activity against human K562 cells; assay type: functional, cell-based
[1] = molecular target: Inosine-5'-monophosphate dehydrogenase 1 (Homo sapiens, UniProt P20839); assay: Inhibition of IMPDH1 (unknown origin)
PC-3 = assay: Antiproliferative activity against human PC3 cells; assay type: functional, cell-based
DU-145 = assay: Antiproliferative activity against human DU145 cells; assay type: functional, cell-based
[2] = molecular target: Inosine-5'-monophosphate dehydrogenase 2 (Homo sapiens, UniProt P12268); assay: Inhibition of IMPDH2 (unknown origin)
HL-60 = assay: Antiproliferative activity against human HL60 cells; assay type: functional, cell-based
HT-29 = assay: Antiproliferative activity against human HT-29 cells; assay type: functional, cell-based
HeLa = assay: Antiproliferative activity against human HeLa cells; assay type: functional, cell-based
Homo sapiens = organism: Homo sapiens; assay: Selectivity ratio of Ki for IMPDH1 (unknown origin) to Ki for IMPDH2 (unknown origin)
Plasma = assay: Metabolic stability in human plasma; assay type: ADME, cell-free

Inosine-5'-monophosphate dehydrogenase 1, sequence (P20839 whole entry): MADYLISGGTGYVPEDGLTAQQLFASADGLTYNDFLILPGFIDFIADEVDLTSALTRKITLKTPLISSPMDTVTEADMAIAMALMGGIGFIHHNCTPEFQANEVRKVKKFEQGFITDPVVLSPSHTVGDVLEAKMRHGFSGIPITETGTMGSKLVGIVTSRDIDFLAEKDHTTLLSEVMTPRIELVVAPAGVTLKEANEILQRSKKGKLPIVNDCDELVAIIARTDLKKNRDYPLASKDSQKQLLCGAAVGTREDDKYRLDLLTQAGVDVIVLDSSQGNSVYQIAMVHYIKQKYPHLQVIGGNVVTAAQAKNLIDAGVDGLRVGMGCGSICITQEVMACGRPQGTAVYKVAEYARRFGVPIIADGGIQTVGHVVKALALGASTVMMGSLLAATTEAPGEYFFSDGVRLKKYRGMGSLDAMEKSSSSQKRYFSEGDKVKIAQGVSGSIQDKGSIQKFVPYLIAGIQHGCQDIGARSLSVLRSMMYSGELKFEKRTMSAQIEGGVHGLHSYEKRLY

IC50 (K562)	Ki [1]	IC50 (PC-3)	IC50 (DU-145)	Ki [2]	IC50 (HL-60)	IC50 (HT-29)	IC50 (HeLa)	Ratio Ki (Homo sapiens)	Stability (Plasma)	SMILES
> 100 µM	0.019 µM	> 100 µM	> 100 µM	0.07 µM	> 100 µM	–	–	–	–	COc1c(C)c2c(c(O)c1C/C=C(\C)CCC(=O)N[C@H](C(=O)NC[C@H]1O[C@@H](n3cnc4c(N)ncnc43)[C@H](O)[C@@H]1O)C(C)C)C(=O)OC2
1 µM	0.013 µM	–	–	0.015 µM	–	8.7 µM	4.5 µM	–	–	COc1c(C)c2c(c(O)c1CCOP(=O)(O)CP(=O)(O)OC[C@H]1O[C@@H](n3cnc4c(N)nc(C(F)(F)F)nc43)[C@H](O)[C@@H]1O)C(=O)OC2
> 100 µM	0.854 µM	> 100 µM	> 100 µM	0.163 µM	> 100 µM	–	–	–	–	COc1c(C)c2c(c(O)c1C/C=C(\C)CCC(=O)N[C@@H](Cc1ccccc1)C(=O)O)C(=O)OC2
2.5 µM	0.491 µM	–	–	0.165 µM	–	> 100 µM	25 µM	3	–	COc1c(C)c2c(c(O)c1CCOP(=O)(O)CP(=O)(O)OC[C@H]1O[C@@H](n3cnc4c(N)cccc43)[C@H](O)[C@@H]1O)C(=O)OC2
6.8 µM	1.83 µM	11 µM	6.3 µM	0.364 µM	4.7 µM	–	–	–	–	COC(=O)[C@H](Cc1ccc(O)cc1)NC(=O)CC/C(C)=C/Cc1c(O)c2c(c(C)c1OC)COC2=O
29 µM	7.72 µM	61 µM	16 µM	1.96 µM	36 µM	–	–	–	–	COC(=O)[C@H](NC(=O)CC/C(C)=C/Cc1c(O)c2c(c(C)c1OC)COC2=O)C(C)C
8.3 µM	3.77 µM	> 100 µM	39 µM	0.967 µM	31 µM	–	–	–	–	COC(=O)[C@@H](NC(=O)CC/C(C)=C/Cc1c(O)c2c(c(C)c1OC)COC2=O)C(C)C
0.8 µM	0.063 µM	–	–	0.037 µM	–	9.8 µM	3 µM	–	–	COc1c(C)c2c(c(O)c1CCOP(=O)(O)CP(=O)(O)OC[C@H]1O[C@@H](n3cnc4c(N)nc(-c5ccco5)nc43)[C@H](O)[C@@H]1O)C(=O)OC2
16 µM	0.522 µM	79 µM	3.1 µM	0.487 µM	22 µM	–	–	–	–	COC(=O)CNC(=O)CC/C(C)=C/Cc1c(O)c2c(c(C)c1OC)COC2=O
> 100 µM	0.259 µM	> 100 µM	> 100 µM	0.188 µM	> 100 µM	–	–	–	–	COc1c(C)c2c(c(O)c1C/C=C(\C)CCC(=O)N[C@@H](Cc1ccccc1)C(=O)NC[C@H]1O[C@@H](n3cnc4c(N)ncnc43)[C@H](O)[C@@H]1O)C(=O)OC2
4.2 µM	1.02 µM	> 100 µM	13 µM	0.094 µM	18 µM	–	–	–	–	COC(=O)[C@H](CO)NC(=O)CC/C(C)=C/Cc1c(O)c2c(c(C)c1OC)COC2=O
> 100 µM	0.032 µM	> 100 µM	> 100 µM	0.174 µM	> 100 µM	–	–	–	–	COc1c(C)c2c(c(O)c1C/C=C(\C)CCC(=O)N[C@H](Cc1c[nH]c3ccccc13)C(=O)O)C(=O)OC2
10 µM	0.892 µM	> 100 µM	> 100 µM	0.321 µM	> 100 µM	–	–	–	–	COc1c(C)c2c(c(O)c1C/C=C(\C)CCC(=O)NCC(=O)O)C(=O)OC2
55 µM	0.132 µM	> 100 µM	> 100 µM	0.175 µM	72 µM	–	–	–	–	COc1c(C)c2c(c(O)c1C/C=C(\C)CCC(=O)N[C@H](C(=O)O)C(C)C)C(=O)OC2
–	–	–	–	–	–	–	–	–	Unstable	COc1c(C)c2c(c(O)c1C/C=C(\C)CCC(=O)OCCN1CCOCC1)C(=O)OC2 [MYCOPHENOLATE MOFETIL]
48 µM	0.039 µM	–	–	0.186 µM	–	> 100 µM	> 100 µM	–	–	COc1c(C)c2c(c(O)c1CCOP(=O)(O)CP(=O)(O)OC[C@H]1O[C@@H](n3c(Br)nc4c(N)ncnc43)[C@H](O)[C@@H]1O)C(=O)OC2
3 µM	0.07 µM	–	–	0.044 µM	–	> 100 µM	11 µM	–	–	COc1c(C)c2c(c(O)c1CCOP(=O)(O)CP(=O)(O)OC[C@H]1O[C@@H](n3cnc4c(N)nc(COCc5ccccc5)nc43)[C@H](O)[C@@H]1O)C(=O)OC2
6.2 µM	0.733 µM	> 100 µM	9.7 µM	0.233 µM	8.3 µM	–	–	–	–	COC(=O)[C@H](Cc1c[nH]c2ccccc12)NC(=O)CC/C(C)=C/Cc1c(O)c2c(c(C)c1OC)COC2=O
14 µM	0.144 µM	> 100 µM	> 100 µM	0.438 µM	35 µM	–	–	–	–	COC(=O)[C@@H](Cc1c[nH]c2ccccc12)NC(=O)CC/C(C)=C/Cc1c(O)c2c(c(C)c1OC)COC2=O

IC50 (K562)	Ki [1]	IC50 (PC-3)	IC50 (DU-145)	Ki [2]	IC50 (HL-60)	IC50 (HT-29)	IC50 (HeLa)	Ratio Ki (Homo sapiens)	Stability (Plasma)	SMILES
50 µM	4.36 µM	> 100 µM	> 100 µM	0.437 µM	35 µM	–	–	–	–	COC(=O)[C@H](Cc1ccccc1)NC(=O)CC/C(C)=C/Cc1c(O)c2c(c(C)c1OC)COC2=O
3 µM	2.2 µM	–	8.7 µM	0.147 µM	4.5 µM	–	–	–	–	COC(=O)[C@H](CCSC)NC(=O)CC/C(C)=C/Cc1c(O)c2c(c(C)c1OC)COC2=O
> 100 µM	2.81 µM	> 100 µM	> 100 µM	2.79 µM	> 100 µM	–	–	–	–	COc1c(C)c2c(c(O)c1C/C=C(\C)CCC(=O)N[C@@H](CO)C(=O)O)C(=O)OC2
> 100 µM	1.68 µM	> 100 µM	> 100 µM	0.215 µM	> 100 µM	–	–	–	–	COc1c(C)c2c(c(O)c1C/C=C(\C)CCC(=O)N[C@@H](Cc1ccc(O)cc1)C(=O)O)C(=O)OC2
> 100 µM	0.056 µM	> 100 µM	> 100 µM	0.235 µM	> 100 µM	–	–	–	–	COc1c(C)c2c(c(O)c1C/C=C(\C)CCC(=O)N[C@@H](Cc1c[nH]c3ccccc13)C(=O)O)C(=O)OC2
–	0.906 µM	–	–	0.524 µM	–	–	–	–	–	COc1c(C)c2c(c(O)c1C/C=C(\C)CCC(=O)N1CCC[C@H]1C(=O)O)C(=O)OC2
1.6 µM	2.55 µM	–	1.5 µM	0.231 µM	2.1 µM	–	–	–	Unstable	COc1c(C)c2c(c(O)c1C/C=C(\C)CCC(=O)OC[C@@H]1O[C@H](n3cnc4c(N)ncnc43)[C@@H](O)[C@H]1O)C(=O)OC2
> 100 µM	0.038 µM	> 100 µM	> 100 µM	0.0126 µM	> 100 µM	–	–	–	–	COc1c(C)c2c(c(O)c1C/C=C(\C)CCC(=O)N[C@H](Cc1ccccc1)C(=O)NC[C@H]1O[C@@H](n3cnc4c(N)ncnc43)[C@H](O)[C@@H]1O)C(=O)OC2
> 100 µM	5.13 µM	> 100 µM	> 100 µM	0.134 µM	> 100 µM	–	–	–	–	COc1c(C)c2c(c(O)c1C/C=C(\C)CCC(=O)N[C@@H](CCSC)C(=O)O)C(=O)OC2
1.5 µM	0.082 µM	–	–	0.056 µM	–	46 µM	12 µM	–	–	COc1c(C)c2c(c(O)c1CCOP(=O)(O)CP(=O)(O)OC[C@H]1O[C@@H](n3cnc4c(N)nc(-c5cccs5)nc43)[C@H](O)[C@@H]1O)C(=O)OC2
> 100 µM	0.003 µM	> 100 µM	> 100 µM	0.088 µM	> 100 µM	–	–	–	–	COc1c(C)c2c(c(O)c1C/C=C(\C)CCC(=O)N[C@@H](C(=O)NC[C@H]1O[C@@H](n3cnc4c(N)ncnc43)[C@H](O)[C@@H]1O)C(C)C)C(=O)OC2
> 100 µM	0.056 µM	> 100 µM	> 100 µM	0.04 µM	> 100 µM	–	–	–	–	COc1c(C)c2c(c(O)c1C/C=C(\C)CCC(=O)N[C@H](Cc1c[nH]c3ccccc13)C(=O)NC[C@H]1O[C@@H](n3cnc4c(N)ncnc43)[C@H](O)[C@@H]1O)C(=O)OC2
49 µM	0.265 µM	> 100 µM	> 100 µM	0.084 µM	> 100 µM	–	–	–	–	COc1c(C)c2c(c(O)c1C/C=C(\C)CCC(=O)NC[C@H]1O[C@@H](n3cnc4c(N)ncnc43)[C@H](O)[C@@H]1O)C(=O)OC2
> 100 µM	0.876 µM	–	–	0.749 µM	–	> 100 µM	> 100 µM	–	–	COc1c(C)c2c(c(O)c1CCOP(=O)(O)CP(=O)(O)OC[C@H]1O[C@@H](n3cnc4c([N+](=O)[O-])cccc43)[C@H](O)[C@@H]1O)C(=O)OC2
> 100 µM	4.31 µM	> 100 µM	10 µM	2.67 µM	> 100 µM	–	–	–	–	COc1c(C)c2c(c(O)c1C/C=C(\C)CCC(=O)N[C@H](Cc1ccccc1)C(=O)O)C(=O)OC2
> 100 µM	0.259 µM	> 100 µM	> 100 µM	0.188 µM	> 100 µM	–	–	–	–	COc1c(C)c2c(c(O)c1C/C=C(\C)CCC(=O)NCC(=O)NC[C@H]1O[C@@H](n3cnc4c(N)ncnc43)[C@H](O)[C@@H]1O)C(=O)OC2
> 100 µM	2.03 µM	> 100 µM	> 100 µM	1.23 µM	> 100 µM	–	–	–	–	COc1c(C)c2c(c(O)c1C/C=C(\C)CCC(=O)N[C@@H](C(=O)O)C(C)C)C(=O)OC2
29 µM	5.56 µM	70 µM	10 µM	2.4 µM	41 µM	–	–	–	–	COC(=O)[C@@H](Cc1ccccc1)NC(=O)CC/C(C)=C/Cc1c(O)c2c(c(C)c1OC)COC2=O
> 100 µM	0.164 µM	> 100 µM	> 100 µM	0.188 µM	> 100 µM	–	–	–	–	COc1c(C)c2c(c(O)c1C/C=C(\C)CCC(=O)N[C@@H](Cc1c[nH]c3ccccc13)C(=O)NC[C@H]1O[C@@H](n3cnc4c(N)ncnc43)[C@H](O)[C@@H]1O)C(=O)OC2
